Results reported in patent US5397787A, “Vinylene-azaindole derivatives” (Farmitalia Carlo Erba S.R.L., priority 1992, dated 1995).

Biological target: p45 v-abl tyrosine kinase
Assay: Exogenous Substrate Kinase Assay: p45 v-abl kinase inhibition, (Val5)-Angiotensin II phosphorylation
Type: biochemical, Abelson murine leukemia virus
Settings: (Val^5)-Angiotensin II 2 mM, ATP 50 μM, pH 8.0, 30° C., triplicate determinations
Protocol: The enzyme used in our test was the p45 v-abl tyrosine kinase which represents the catalytic domain of the Abelson tyrosine kinase (isolated from the Abelson murine leukemia virus). The p45 v-abl kinase was produced and isolated as described by Wang et al. in J. Biol. Chem. 260, 64 (1985) and by Ferguson et al. in J. Biol. Chem. 260, 3652 (1985) and in Biochem. J. 257, 321 (1989).
(Val^5)-Angiotensin II phosphorylation was performed by incubation with 40 ng of purified abl-kinase and (γ-^32 P)-ATP, in 50 μl of buffer containing Tris-HCl 25 mM, pH 8.0, MgCl2 10 mM and dithiothreitol 0.1 mM (kinase buffer). The reaction mixture was incubated for the indicated time at 30° C. and the reaction stopped by adding 50 μl of 5% trichloroacetic acid.
After a brief incubation on ice, tubes were centrifuged. The supernatants were spotted on phosphocellulose paper squares (Whatman P-81) and washed extensively in acetic acid. The radioactivity bound to dried phosphocellulose squares was measured in a liquid scintillation counter. IC50 values were calculated from triplicate determinations of each experimental point. Each inhibitor was tested at concentrations ranging from […] in the presence of fixed concentrations of peptide (2 mM) and ATP (50 μM).

| SMILES | IC50 [nM] |
| --- | --- |
| N#CC(=Cc1c[nH]c2ncccc12)C(N)=O [2-cyano-3-(7-azaindol-3-yl)acrylamide] | 4700 |
| O=C1Nc2ccccc2/C1=C/c1c[nH]c2ncccc12 [3-[(7-azaindol-3-yl)methylen]-2-oxindole, (Z)-3-[(7-azaindol-3-yl)methylen]-2-oxindole] | 50 |
